Where two headings read alike, the source gives them in different places.
Tests used:
[1] = tested on: purified enzyme (capsaicin hydrolysis activity); test: Effects of various reagents upon enzymatic activity (capsaicin hydrolysis); assay type: biochemical, Streptomyces mobaraensis IFO 13819
[2] = tested on: Streptomyces mobaraensis (enzyme according to the invention); test: Hydrolysis of N-benzyloxycarbonyl-L-amino acids by the enzyme of the invention; assay type: biochemical
Method: An ability of hydrolyzing/dehydration condensing by the enzyme according to the invention is examined by using N-benzyloxycarbonyl-L-amino acid (Z-L-amino acid) as an amide. The reaction is performed by using […] of the enzyme in 0.2 ml of 50 mM tris-hydrochloric acid buffer solution containing 0.1 mM of CoCl2 as a solvent (pH: 7.5) under a condition that a final concentration of N-benzyloxycarbonyl-L-amino acid is 10 mM at 37° C. for 30 minutes (Z-L-Phe and Z-L-Tyr) or 1 hour (the other Z-L-amino acids).

[3] = tested on: Urethane hydrolase IV (strain F-86); conditions: cited from earlier work
[4] = tested on: Streptomyces mobaraensis (enzyme according to the invention); test: Hydrolysis of antibiotic substances having an amide bond by the enzyme of the invention; assay type: biochemical; conditions: for hydrolyzing activity for the substrate: 10 mM antibiotic, pH 7.5, 37° C., 2 minutes, 0.1 mM CoCl2, 1 Unit = 1 μmol substrate hydrolyzed in 1 hour; for Activity kcat (approximate value): substrate of the enzyme according to the invention
Method: The enzyme is examined on the hydrolysis of an antibiotic substance having an amide bond. As the antibiotic substance are used Penicillin G, Penicillin V and Ampicillin, respectively. The reaction is carried out at 37° C. for 2 minutes by using 20 μg of the enzyme in 0.1 ml of 50 mM tris-hydrochloric acid buffer solution containing 0.1 mM of CoCl2 as a solvent (pH: 7.5) under a condition that a final concentration of the antibiotic substance is 10 mM.
As a result, if the hydrolyzing activity for capsaicin at pH of 7.5 is 200 U/mg (Unit is defined as an amount of the enzyme required for hydrolyzing 1 μmol of the substrate at 37° C. for 1 hour), the activities for Penicillin G, Penicillin V and Ampicillin are 2200 U, 6000 U and 1000 U, respectively.
In order to show the utility of the enzyme according to the invention, it is compared with the existing Penicillin Vacylase originated from Streptomyces lavendulae (Raquel Torres-Guzman et al., Biochemical and Biophysical Research Communications, Vol. 291, 593-0597 (2002)) (compared with activity kcat (1/s)).

[5] = tested on: Penicillin Vacylase originated from Streptomyces lavendulae; conditions: cited from earlier work; for Activity kcat: substrate of Streptomyces lavendulae Penicillin V acylase, Torres-Guzman et al. 2002
[6] = tested on: Capsaicin hydrolyzing/dehydration condensing enzyme of the invention; conditions: fatty acid as substrate with vanillylamine; water/n-hexane two-phase system, 37° C.; HPLC of hexane phase
Method: (§1) The reaction temperature is 37° C.
(§2) As a comparative example, aminoacylase is used. The resulting capsaicin analog is quantitatively measured by HPLC analysis of the hexane phase.

Aminoacylase = test: Synthesis of capsaicin analogs from vanillylamine and fatty acids, comparative aminoacylase; assay type: biochemical; conditions: comparative example; fatty acid as substrate with vanillylamine; water/n-hexane two-phase system, 37° C.; HPLC of hexane phase
Method: as §1, §2

[7] = pH dependency, heat stability and temperature dependency of the purified enzyme; assay type: physicochemical, Streptomyces mobaraensis IFO 13819
[8] = reagent 1 mM, 0.13 mM capsaicin/50 mM tris-HCl (pH 7.5), control = 100
[9] = 10 mM Z-L-amino acid, pH 7.5, 37° C., 0.1 mM CoCl2

For N[C@@H](CCC(=O)N[C@@H](CS)C(=O)NCC(=O)O)C(=O)O [GSH], the Relative activity [1, 8] was 99.8%.
In the case of NCCCC[C@H](NC(=O)OCc1ccccc1)C(=O)O [Z-Lys], the “Activity for the substrate” value [2, 9] is listed as 38 Unit/mg and the “Activity for the substrate” value ([3]; Matsumura et al. 1985) is listed as 0 Unit/mg.
In the case of O=C(NC(Cc1cnc[nH]1)C(=O)O)OCc1ccccc1 (stereo not shown) [Z-His], the “Activity for the substrate” value [2, 9] is given as 36 Unit/mg and the “Activity for the substrate” value ([3]; Matsumura et al. 1985) is given as 18 Unit/mg.
[Cl-].[Cl-].[Zn+2] [ZnCl2] gave a Relative activity [1, 8] of 95.5%.
For CC1(C)S[C@@H]2[C@H](NC(=O)COc3ccccc3)C(=O)N2[C@H]1C(=O)O [Penicillin V], the “hydrolyzing activity for the substrate” value [4] is given as 6000 U, the “Activity kcat (approximate value)” value [4] is given as greater than 80 s⁻¹ and the Activity kcat [5] is given as 60.25 s⁻¹.
For N=C(N)NCCC[C@H](NC(=O)OCc1ccccc1)C(=O)O [Z-Arg], the “Activity for the substrate” value [2, 9] is given as 37 Unit/mg and the “Activity for the substrate” value ([3]; Matsumura et al. 1985) is given as 0 Unit/mg.
For O=C(O)CNC(=O)OCc1ccccc1 [Z-Gly], the “Activity for the substrate” value [2, 9] is given as 0 Unit/mg and the “Activity for the substrate” value ([3]; Matsumura et al. 1985) is given as 108 Unit/mg.
With COc1cc(CNC(=O)CCCC/C=C/C(C)C)ccc1O [capsaicin] the “hydrolyzing activity for capsaicin” value ([4]; pH 7.5, reference value for the antibiotic activities) was 200 U/mg.
For O=C(N[C@@H](Cc1ccccc1)C(=O)O)OCc1ccccc1 [Z-Phe], the “Activity for the substrate” value [2] is given as “high activity”, the “Activity for the substrate” value [2, 9] is given as 470 Unit/mg and the “Activity for the substrate” value ([3]; Matsumura et al. 1985) is given as 54 Unit/mg. For the same molecule, the “Activity for the substrate” value [3] was “lower activity”.
Work on O=S(=O)([O-])[O-].[Mg+2] [MgSO4] yielded a Relative activity [1, 8] of 96.0%.
For C[C@H](NC(=O)OCc1ccccc1)C(=O)O [Z-Ala], the “Activity for the substrate” value [2, 9] is given as 29 Unit/mg and the “Activity for the substrate” value ([3]; Matsumura et al. 1985) is given as 228 Unit/mg.
For CCCCCCCCCCCC(=O)O [Lauric acid], the “Synthesis of capsaicin analogs” value [6] was 1.25 mM and the “Synthesis of capsaicin analogs” value (Aminoacylase) was 0.051 mM.
In the case of O=S(=O)([O-])[O-].[Fe+2] [FeSO4], the Relative activity [1, 8] is reported as 88.8%.
Molecule O=C(O)CN(CCN(CC(=O)O)CC(=O)O)CC(=O)O [EDTA] has a Relative activity ([1]; pH 7.5) of 85.5%.
In the case of CC(C)C(NC(=O)OCc1ccccc1)C(=O)O (stereo not shown) [Z-Val], the “Activity for the substrate” value [2, 9] is given as 43 Unit/mg and the “Activity for the substrate” value ([3]; Matsumura et al. 1985) is given as 84 Unit/mg.
In the case of CCCCCCCCCCCCCC(=O)O [Myristic acid], the “Synthesis of capsaicin analogs” value [6] is reported as 0.24 mM.
NC(=O)CI [Idoacetoamide] gave a Relative activity [1, 8] of 86.5%.
With O=S(=O)([O-])[O-].[Cu+2] [CuSO4] the Relative activity [1, 8] was 96.9%.
N[C@@H](CS)C(=O)O [L-Cys] showed a Relative activity [1, 8] of 101.2%.
Work on O=C(O)c1cc[c]([Hg][Cl])cc1 [PCMB] yielded a Relative activity [1, 8] of 96.6%.
For CCC(C)C(NC(=O)OCc1ccccc1)C(=O)O (stereo not shown) [Z-Ile], the “Activity for the substrate” value [2, 9] is given as 28 Unit/mg and the “Activity for the substrate” value ([3]; Matsumura et al. 1985) is given as 18 Unit/mg.
For CC(C)C[C@H](NC(=O)OCc1ccccc1)C(=O)O [Z-Leu], the “Activity for the substrate” value [2, 9] is given as 100 Unit/mg and the “Activity for the substrate” value ([3]; Matsumura et al. 1985) is given as 1668 Unit/mg.
With [Cl-].[Cl-].[Co+2] [CoCl2] the “effect on capsaicin hydrolysis activity of the purified enzyme” value [1] was “enhanced”, the Relative activity ([1]; pH 7.5) was 145.5% and the “residual activity with added cobalt ion vs no cobalt ion” value [7] was “higher”.
In the case of O=C(O)C[C@H](NC(=O)OCc1ccccc1)C(=O)O [Z-Asp], the “Activity for the substrate” value ([3]; Matsumura et al. 1985) is listed as 360 Unit/mg.
For C[C@@H](O)[C@H](NC(=O)OCc1ccccc1)C(=O)O [Z-Thr], the “Activity for the substrate” value [2, 9] is listed as 4.5 Unit/mg and the “Activity for the substrate” value ([3]; Matsumura et al. 1985) is listed as 162 Unit/mg.
For O=C(NC(CSCc1ccccc1)C(=O)O)OCc1ccccc1 (stereo not shown) [Cys(Bzl)], the “Activity for the substrate” value [2, 9] is listed as 250 Unit/mg and the “Activity for the substrate” value ([3]; Matsumura et al. 1985) is listed as 228 Unit/mg.
In the case of O[C@@H](CS)[C@@H](O)CS [DTT], the Relative activity [1, 8] is reported as 79.8%.
In the case of NC(=O)CC[C@H](NC(=O)OCc1ccccc1)C(=O)O [Z-Gln], the “Activity for the substrate” value [2, 9] is given as 27 Unit/mg and the “Activity for the substrate” value ([3]; Matsumura et al. 1985) is given as 144 Unit/mg.
For O=[N+]([O-])[O-].[Ag+] [AgNO3], the Relative activity [1, 8] was 100.1%.
Work on (NH4)6Mo7O24 yielded a Relative activity [1, 8] of 88.7%.
For O=C(N[C@@H](CO)C(=O)O)OCc1ccccc1 [Z-Ser], the “Activity for the substrate” value [2, 9] is listed as 0 Unit/mg and the “Activity for the substrate” value ([3]; Matsumura et al. 1985) is listed as 18 Unit/mg.
[Ca+2].[Cl-].[Cl-] [CaCl2] gave a Relative activity [1, 8] of 101.6%.
For CSCCC(NC(=O)OCc1ccccc1)C(=O)O (stereo not shown) [Z-Met], the “Activity for the substrate” value [2, 9] is given as 85 Unit/mg and the “Activity for the substrate” value ([3]; Matsumura et al. 1985) is given as 294 Unit/mg.
For CC1(C)S[C@@H]2[C@H](NC(=O)Cc3ccccc3)C(=O)N2[C@H]1C(=O)O [Penicillin G], the “Activity for the substrate” value [4] was “excellent activity”, the “hydrolyzing activity for the substrate” value [4] was 2200 U and the “Activity kcat (approximate value)” value [4] was greater than 50 s⁻¹. For the same molecule, the “Activity for the substrate” value [5] was “hardly an activity” and the Activity kcat [5] was 3.4 s⁻¹.
In the case of CC1(C)S[C@@H]2[C@H](NC(=O)[C@H](N)c3ccccc3)C(=O)N2[C@H]1C(=O)O [Ampicillin], the “Activity for the substrate” value [4] is reported as “excellent activity”, the “hydrolyzing activity for the substrate” value [4] is reported as 1000 U and the “Activity kcat (approximate value)” value [4] is reported as greater than 17 s⁻¹. For the same molecule, the “Activity for the substrate” value [5] was “hardly an activity” and the Activity kcat [5] was 0 s⁻¹.
For NC(=O)C[C@H](NC(=O)OCc1ccccc1)C(=O)O [Z-Asn], the “Activity for the substrate” value [2, 9] is listed as 12 Unit/mg and the “Activity for the substrate” value ([3]; Matsumura et al. 1985) is listed as 138 Unit/mg.
For O=C(O)CC[C@H](NC(=O)OCc1ccccc1)C(=O)O [Z-Glu], the “Activity for the substrate” value [2, 9] is given as 12 Unit/mg and the “Activity for the substrate” value ([3]; Matsumura et al. 1985) is given as 246 Unit/mg.
For O=C(N[C@@H](Cc1ccc(O)cc1)C(=O)O)OCc1ccccc1 [Z-Tyr], the “Activity for the substrate” value [2] is given as “high activity”, the “Activity for the substrate” value [2, 9] is given as 650 Unit/mg and the “Activity for the substrate” value ([3]; Matsumura et al. 1985) is given as 0 Unit/mg. For the same molecule, the “Activity for the substrate” value [3] was “lower activity”.
Molecule OCCS [β-mercaptoethanol] has a Relative activity ([1]; reagent 10 mM, 0.13 mM capsaicin/50 mM tris-HCl (pH 7.5), control = 100) of 79.3%.

Source: patent US20040106172A1, “Hydrolyzing/dehydration condensing enzymes, method for producing the enzyme and method for synthesizing amide by using the enzyme” (Okayama University, priority 2002, published 2004)
